Active and inactive are the calls of the source.
How the values were obtained:
[1] = system: Escherichia coli; assay: microbe, parasite or virus in culture
[2] = NIH-3T3 fibroblast cytotoxicity, dose response, cytotoxicity control, cell-based, fluorescence, Alamar Blue, secondary assay (AID 2327); assay type: functional;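 also: NIH-3T3 mouse fibroblasts cultured with fluconazole at 8 µg/mL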
[3] = C. albicans growth with fluconazole, confirmation, fluorescence, retest (AID 2467); assay type: functional, cell-based
[4] = system: HEK293; assay: inhibitors of LMP1-driven NF-kB reporter, dose response, cell-based, HEK293, luciferase, cherry-pick (AID 588343); assay type: functional; details: Homo sapiens
[5] = molecular target: Heat shock protein HSP 90-alpha (Homo sapiens, UniProt P07900); assay type: functional, organism-based
[6] = system: HeLa; assay: HeLa cell cytotoxicity, dose response, cytotoxicity control for MITF activator project, CellTiter-Glo luminescence, cherry-pick samples (AID 540259); assay type: functional, cell-based; details: Homo sapiens
[7] = inhibitors of intracellular T. cruzi replication, confirmation, NIH3T3 host cells, beta-gal luminescence (AID 2044); assay type: functional, cell-based;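 also: intracellular parasites grown in NIH/3T3 mouse fibroblasts as host cells; luminescent beta-galactosidase reporter signal from transgenic T. cruzi replicating inside host cells; inhibitors lower the luminescence signal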
[8] = cytotoxicity toward NIH3T3 fibroblasts, dose response, counter-screen, cell-based, ATP luminescence, mouse fibroblasts (AID 2010); assay type: functional;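 also: cells exposed to compound for about 90 hours before reading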
[9] = Shn3 3'UTR reporter inhibitors, dose response, cell-based, Clone20 osteoblasts, firefly luciferase, cherry-picked (AID 624132); assay type: functional;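 also: firefly luciferase luminescence from reporter carrying the Shn3 3'UTR in osteoblasts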
[10] = HepG2 cell cytotoxicity, dose response, cytotoxicity control for Shn3 inhibitor project, CellTiter-Glo, cherry-picked (AID 624134); assay type: functional, cell-based
[11] = control 3'UTR Renilla luciferase suppression, dose response, counter-screen for Shn3 inhibitor project, cell-based, Clone20-Shn3RL, cherry-picked (AID 624133); assay type: functional
[12] = molecular target: T1, Corticotropin-releasing factor receptor 2/Corticotropin-releasing factor-binding protein (Homo sapiens, UniProt P24387+Q13324); assay: activators of CRF receptor 2 with binding protein – uHTS hits, confirmation (AID 602473); assay type: functional; details: read-out: EC50_Mean
T1 sequence (Q13324 whole entry): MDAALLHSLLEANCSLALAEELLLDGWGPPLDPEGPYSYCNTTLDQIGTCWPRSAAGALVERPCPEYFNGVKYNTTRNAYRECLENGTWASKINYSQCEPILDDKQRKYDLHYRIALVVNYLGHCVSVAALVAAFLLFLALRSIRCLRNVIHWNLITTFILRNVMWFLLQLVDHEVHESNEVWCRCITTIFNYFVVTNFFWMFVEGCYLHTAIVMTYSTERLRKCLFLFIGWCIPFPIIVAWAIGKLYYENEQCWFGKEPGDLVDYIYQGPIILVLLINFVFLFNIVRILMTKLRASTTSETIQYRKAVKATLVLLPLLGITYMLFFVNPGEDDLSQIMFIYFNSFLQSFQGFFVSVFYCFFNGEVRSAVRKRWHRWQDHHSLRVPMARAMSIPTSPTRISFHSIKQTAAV
T1 sequence (P24387 whole entry): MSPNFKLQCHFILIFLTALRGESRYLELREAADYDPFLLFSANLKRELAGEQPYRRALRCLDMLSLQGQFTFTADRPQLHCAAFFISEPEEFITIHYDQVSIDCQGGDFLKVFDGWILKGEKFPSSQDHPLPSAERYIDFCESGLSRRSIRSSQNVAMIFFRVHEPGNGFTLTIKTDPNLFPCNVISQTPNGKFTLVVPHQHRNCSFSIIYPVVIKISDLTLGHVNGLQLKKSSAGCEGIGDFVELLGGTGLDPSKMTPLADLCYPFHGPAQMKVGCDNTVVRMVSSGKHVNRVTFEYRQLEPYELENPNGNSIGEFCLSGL

[13] = molecular target: Troponin, cardiac muscle (Homo sapiens, UniProt P19429+P45379+P63316); assay: Fluorescence-based biochemical high throughput dose response assay for activators of the calcium sensitivity of cardiac Regulated Thin Filaments (RTF). [Related pubchem assays (depositor defined):AID493008, AID493018, AID504382, AID504383]; assay type: protein-complex assay
[14] = system: HEK293; assay: cells; details: Homo sapiens
[15] = system: HEK293; assay: cells; details: Homo sapiens; remark: listed apart in the source
[16] = molecular target: T2, Mannose-6-phosphate isomerase (Homo sapiens, UniProt P34949); assay: human PMI inhibitors, high substrate, primary screen, biochemical, fluorescence intensity, high mannose 6-phosphate (AID 1220)
T2 sequence (P34949 whole entry): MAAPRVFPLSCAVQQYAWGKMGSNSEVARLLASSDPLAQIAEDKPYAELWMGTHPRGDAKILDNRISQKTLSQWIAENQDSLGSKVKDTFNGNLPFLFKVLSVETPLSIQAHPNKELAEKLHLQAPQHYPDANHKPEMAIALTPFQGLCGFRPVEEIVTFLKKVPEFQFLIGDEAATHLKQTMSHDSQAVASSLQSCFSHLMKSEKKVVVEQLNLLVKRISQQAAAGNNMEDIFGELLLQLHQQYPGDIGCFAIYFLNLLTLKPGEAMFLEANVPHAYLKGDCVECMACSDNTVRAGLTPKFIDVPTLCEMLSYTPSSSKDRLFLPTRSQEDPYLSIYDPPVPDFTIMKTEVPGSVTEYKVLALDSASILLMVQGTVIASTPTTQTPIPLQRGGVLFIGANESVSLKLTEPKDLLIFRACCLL

[17] = molecular target: Glucose-6-phosphate 1-dehydrogenase (Homo sapiens, UniProt P11413); assay: human G6PD enzyme inhibitors, dose response, selectivity assay for P. falciparum G6PD inhibitor project, biochemical, fluorescence (AID 504792); assay type: functional
Chain of Glucose-6-phosphate 1-dehydrogenase (P11413 whole entry): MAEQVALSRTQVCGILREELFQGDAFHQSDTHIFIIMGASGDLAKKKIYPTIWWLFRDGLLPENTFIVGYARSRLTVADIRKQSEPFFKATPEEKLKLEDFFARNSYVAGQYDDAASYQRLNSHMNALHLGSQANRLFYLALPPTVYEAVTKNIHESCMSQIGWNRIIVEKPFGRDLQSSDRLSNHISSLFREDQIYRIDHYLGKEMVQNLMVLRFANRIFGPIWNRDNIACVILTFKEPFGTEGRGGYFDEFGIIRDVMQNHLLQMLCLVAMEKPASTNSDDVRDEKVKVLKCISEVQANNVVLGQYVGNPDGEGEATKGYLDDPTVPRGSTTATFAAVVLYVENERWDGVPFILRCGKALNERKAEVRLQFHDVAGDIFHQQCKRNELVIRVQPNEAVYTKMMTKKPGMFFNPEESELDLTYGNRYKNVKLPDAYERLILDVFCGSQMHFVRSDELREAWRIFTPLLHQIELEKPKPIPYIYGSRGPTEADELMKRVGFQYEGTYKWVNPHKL

[18] = molecular target: T3, Rac GTPase-activating protein 1 (Homo sapiens, UniProt Q9H0H5); assay: MgcRacGAP GTPase-activating activity inhibitors, confirmation, biochemical, ADP Hunter fluorescence, primary and confirmatory (AID 624330); assay type: functional
T3 sequence (Q9H0H5 whole entry): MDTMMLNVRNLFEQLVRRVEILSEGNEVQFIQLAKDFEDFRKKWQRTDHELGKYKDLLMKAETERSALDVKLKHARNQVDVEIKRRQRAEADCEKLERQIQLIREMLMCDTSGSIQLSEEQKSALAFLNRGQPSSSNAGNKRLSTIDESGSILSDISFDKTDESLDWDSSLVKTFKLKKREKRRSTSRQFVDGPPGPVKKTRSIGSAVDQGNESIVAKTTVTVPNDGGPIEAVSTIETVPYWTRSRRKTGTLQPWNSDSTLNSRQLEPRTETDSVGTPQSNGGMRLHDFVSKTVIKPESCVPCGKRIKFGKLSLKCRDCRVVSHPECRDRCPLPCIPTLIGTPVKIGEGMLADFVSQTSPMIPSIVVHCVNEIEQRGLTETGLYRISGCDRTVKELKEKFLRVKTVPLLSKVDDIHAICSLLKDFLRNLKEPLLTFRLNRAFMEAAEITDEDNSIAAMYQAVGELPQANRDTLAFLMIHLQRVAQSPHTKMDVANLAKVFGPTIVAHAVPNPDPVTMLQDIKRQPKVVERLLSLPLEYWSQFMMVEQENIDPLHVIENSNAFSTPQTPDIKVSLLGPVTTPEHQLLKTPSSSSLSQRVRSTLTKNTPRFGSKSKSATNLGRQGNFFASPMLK

[19] = system: Vero; assay: cells; assay type: functional; details: Chlorocebus sabaeus
[20] = system: Streptococcus sp. 'group A'; assay: growth inhibition of control SK(-) GAS strain, dose response, counter-screen for streptokinase expression inhibitor project, luminescence, kanamycin, BacTiterGlo, confirmation (AID 1900); assay type: functional, organism-based
[21] = molecular target: T4, Streptokinase A (Streptococcus pyogenes serotype M1, UniProt P10520); assay: S. pyogenes streptokinase expression inhibitors, potency, dose response, plasminogen activation absorbance, OD405 (AID 1914); assay type: functional, Streptococcus pyogenes M1 GAS;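 also: secreted streptokinase activity via plasminogen activation per viability signal from cell pellet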
T4 sequence (P10520 whole entry): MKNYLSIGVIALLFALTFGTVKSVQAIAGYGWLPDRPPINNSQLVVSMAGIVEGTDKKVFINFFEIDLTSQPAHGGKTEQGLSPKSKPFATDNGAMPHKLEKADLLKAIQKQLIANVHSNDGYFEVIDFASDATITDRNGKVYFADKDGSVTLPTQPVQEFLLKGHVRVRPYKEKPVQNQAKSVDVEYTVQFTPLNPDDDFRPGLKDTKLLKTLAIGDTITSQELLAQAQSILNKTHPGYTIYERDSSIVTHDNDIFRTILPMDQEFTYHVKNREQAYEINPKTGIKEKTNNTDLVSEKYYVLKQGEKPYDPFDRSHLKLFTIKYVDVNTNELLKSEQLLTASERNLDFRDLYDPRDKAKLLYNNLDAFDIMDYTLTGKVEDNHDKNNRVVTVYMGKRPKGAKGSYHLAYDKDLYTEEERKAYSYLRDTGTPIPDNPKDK

[22] = system: Streptococcus; assay: Group A Streptococcus viability loss, dose response, counter-screen for streptokinase expression inhibitor project, luminescence, BacTiterGlo (AID 1915); assay type: functional, organism-based;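 also: potency for reduction of bacterial viability or growth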
[23] = Luminescence Cell-Based Dose Retest to Confirm Inhibitors of Cancer Stem Cells. [Related pubchem assays (depositor defined):AID2717, AID2721]; assay type: functional; details: Homo sapiens
[24] = system: INS1; assay: beta cell apoptosis inhibitors, cytokine rescue, dose response, luminescence, retest (AID 449756); assay type: functional, cell-based; details: Rattus norvegicus;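 also: cell death triggered by IL-1 beta plus TNF-alpha plus IFN-gamma mixture; protective hits raise ATP signal compared with cytokine alone wells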
[25] = molecular target: T5, Cysteine protease ATG4B (Homo sapiens, UniProt Q9Y4P1); assay type: functional;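 also: Fluorescence-based dose-response confirmation assay measuring inhibition of ATG4B activity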
T5 sequence (Q9Y4P1 whole entry): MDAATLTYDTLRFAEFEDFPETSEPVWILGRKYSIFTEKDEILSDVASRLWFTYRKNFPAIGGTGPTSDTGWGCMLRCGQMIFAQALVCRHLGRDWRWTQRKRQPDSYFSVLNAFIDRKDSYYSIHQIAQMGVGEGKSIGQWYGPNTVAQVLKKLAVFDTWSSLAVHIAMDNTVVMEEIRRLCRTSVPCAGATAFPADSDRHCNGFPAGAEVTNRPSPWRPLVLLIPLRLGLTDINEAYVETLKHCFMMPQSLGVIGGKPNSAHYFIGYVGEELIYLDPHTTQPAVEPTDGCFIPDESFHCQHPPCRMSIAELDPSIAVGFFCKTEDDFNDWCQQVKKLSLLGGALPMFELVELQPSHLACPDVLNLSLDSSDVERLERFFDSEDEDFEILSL

[26] = molecular target: Phospholipase A2 (Homo sapiens, UniProt P04054); assay type: functional;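 also: confirmatory dose-response counterscreen on phospholipase A2, testing hits that came from an ultra-high-throughput screen for ATG4B inhibitors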
Chain of Phospholipase A2 (P04054 whole entry, the tested form may be a part): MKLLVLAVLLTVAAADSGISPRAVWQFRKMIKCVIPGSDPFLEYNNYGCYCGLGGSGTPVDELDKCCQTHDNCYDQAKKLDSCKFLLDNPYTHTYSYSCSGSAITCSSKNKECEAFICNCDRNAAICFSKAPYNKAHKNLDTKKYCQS

[27] = HIV-1 Env-mediated cell fusion inhibitors, dose response, CCR5-tropic Env (AID 2279); assay type: functional

CN1CCC(=NNC(=O)C(=O)Nc2cccc(Br)c2)CC1
AC50 [1]: 65.2 µM (active)

O=C(Oc1c(Cl)cc(Cl)c2cccnc12)c1cccc([N+](=O)[O-])c1
EC50 [2]: 5.41 µM (active) | EC50 [3]: 119 nM (active) | AC50 [4]: 30.6 µM (active) | AC50 [5]: 14.3 µM (active)

COc1ccc(OC)c(S(=O)(=O)NCCc2ccccc2)c1
AC50 [1]: 28.4 µM (active)

COc1ccc2nc3ccccc3nc2c1
AC50 [6]: 73.5 µM (active)

CCCN1C(=O)C(=O)N(CC(=O)c2cc(C)n(C3CC3)c2C)C1=O
AC50 [6]: 62.6 µM (active)

CCOc1cc(CNCc2ccccc2)ccc1OCc1ccc(Cl)cc1
EC50 [7]: 2.88 µM (active) | EC50 [8]: > 16 µM (not active) | AC50 [9]: 6.69 µM (active) | AC50 [10]: 19.7 µM (active) | AC50 [11]: 5.41 µM (active)

COc1ccc(C=Cc2ccc3ccccc3n2)c(OC)c1
AC50 [4]: 14.5 µM (active) | EC50 [12]: > 53 µM (inactive)

C[C@@H]1C(c2ccc(F)cc2)=NN(c2ccccc2)[C@H]1C(=O)N1CCOC1=O
AC50 [1]: 33.5 µM (active)

C/C(NN1CCCCC1c1cccnc1)=C1/C(=O)NC(=S)N(C2CCCCC2)C1=O (stereo unspecified)
EC50 [13]: 14.9 µM (inactive) | EC50 [14]: > 59.6 µM (inactive) | EC50 [15]: > 59.6 µM (inactive)

C=CCOc1ccc(CNc2ccc3[nH]c(O)nc3c2)cc1OC
IC50 [16]: > 50 µM (not active) | IC50 [17]: 53.4 µM (inactive)

COc1cc(N)c2ncccc2c1SC
IC50 [17]: > 80 µM (inactive) | IC50 [18]: 41.3 µM (active)

CCc1cc(-c2nnn(CCC3COCCO3)c2CC)ccc1-c1cn(Cc2ccccc2)nn1 (stereo unspecified)
CC50 [19]: 23.7 µM (active)

O=C(COC(=O)Cn1cnc2ccccc2c1=O)NCC12CC3CC(CC(C3)C1)C2
AC50 [1]: 32.8 µM (active)

O=C1C=CC(=O)N1c1ccc(-c2nc3ccccc3o2)cc1
IC50 [17]: > 80 µM (inactive)

O=C(NCc1nc(-c2ccc(C(F)(F)F)cc2)no1)Nc1cc(Cl)cc(Cl)c1
EC50 [20]: 2.88 µM (active) | EC50 [21]: > 150 µM (not active) | EC50 [7]: 2.43 µM (active) | EC50 [8]: 4.69 µM (active) | EC50 [22]: 8.49 µM (active) | AC50 [23]: 1.53 µM (active) | AC50 [24]: 7.49 µM (active) | CC50 [19]: 8.95 µM (active)

CCNc1nc(NC(C)C)nc(NS(=O)(=O)c2ccc(Cl)cc2)n1
IC50 [17]: > 80 µM (inactive)

CCCC(C)Sc1nc2c(=S)n(C)c(=O)n(C)c2[nH]1 (stereo unspecified)
EC50 [14]: > 59.7 µM (inactive) | EC50 [15]: > 59.7 µM (inactive)

CCc1ccc2c(c1)C(c1ccc([N+](=O)[O-])cc1)=NNC(c1ccccc1)=N2
IC50 [25]: 0.399 µM (active) | IC50 [26]: 357 nM (active)

O=C(O)c1cc(-c2ccc(-c3c(-c4ccc5c(c4)OCO5)noc3-c3ccsc3)cc2)nc2ccccc12
EC50 [20]: 1.85 µM (active) | EC50 [21]: > 150 µM (not active) | IC50 [27]: 37.7 µM (active) | EC50 [22]: 3.63 µM (active) | IC50 [25]: 6.81 µM (active) | IC50 [26]: 2260 nM (active) | AC50 [6]: 52.5 µM (active)

Reference: ChEMBL document CHEMBL1201862, “PubChem BioAssay data set” (2004)
